Laboratory results: article PMC10960024, “Diindoles produced from commensal microbiota metabolites function as endogenous CAR/Nr1i3 ligands” (Nature Communications, 2024)

Key:
hCAR LBD-SRC1 protein = biological target: T1, hCAR LBD-SRC1 protein (Homo sapiens, UniProt Q14994); experiment: Fluorescence thermal shift assay (TSA); format: binding; conditions: diindoles at 12.5 µM; APO Tm 51.5 °C; means of triplicates
T1 construct: The human CAR LBD (Lys^108 – Ser^352) was amplified by PCR from cDNA; HIS6; made in house; host or cells: E. coli BL21(DE3)
T1 sequence (Q14994 108-352): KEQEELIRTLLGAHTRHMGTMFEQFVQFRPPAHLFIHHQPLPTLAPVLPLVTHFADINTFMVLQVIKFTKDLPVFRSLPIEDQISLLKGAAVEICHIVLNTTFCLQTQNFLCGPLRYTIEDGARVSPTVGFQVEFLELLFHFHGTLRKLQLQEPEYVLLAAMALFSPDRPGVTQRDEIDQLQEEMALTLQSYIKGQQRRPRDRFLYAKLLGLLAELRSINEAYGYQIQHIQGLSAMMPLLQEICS
Description: Purified hCAR LBD-SRC1 protein was assayed in 137 mM NaCl, 2.7 mM KCl, 10 mM Na2HPO4, and 1.8 mM KH2PO4, 0.5% DMSO, pH 7.4, at a final concentration of 2.2 µM. SYPRO Orange was used at a final concentration of 10× (Invitrogen, S6650). Each sample was divided into three 25 µL replicates. Sample solutions were dispensed into 96-well optical reaction plates (Thermo Fisher Scientific, 4306737) and sealed with optical PCR plate sheets (Thermo Fisher Scientific, AB-1170). TSA experiments were carried out using a QuantStudio 12 K Flex Real Time PCR System (Applied Biosystems). The temperature was ramped up from 25 °C to 95 °C at a rate of 0.3 °C/min, and SYPRO orange fluorescence monitored. Raw fluorescence data and melting temperatures were determined using nonlinear regression curve fitting using GraphPad Prism 9.

GAL4-hCAR LBD = biological target: T2, GAL4-hCAR LBD (Homo sapiens, UniProt Q14994); experiment: HEK293T GAL4-hCAR dual transfection reporter assay with PK11195 (antagonist displacement); format: cell-based; conditions: read-out: HEK293 GAL4-hCAR EC50
T2 construct: chimeric yeast GAL4 DBD fused to an hCAR LBD; expressed in transfected cells; host or cells: HEK293T (ATCC, CRL-3216)
T2 sequence (Q14994 109-352 limits assumed): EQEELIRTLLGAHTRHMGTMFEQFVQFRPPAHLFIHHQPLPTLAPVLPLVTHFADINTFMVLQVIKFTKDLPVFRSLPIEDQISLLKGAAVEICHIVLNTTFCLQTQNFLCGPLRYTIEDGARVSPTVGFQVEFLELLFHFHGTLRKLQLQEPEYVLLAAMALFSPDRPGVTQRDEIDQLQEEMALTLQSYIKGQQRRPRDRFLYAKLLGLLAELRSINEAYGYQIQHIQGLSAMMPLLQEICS
From the text: The GAL4-hCAR, UAS-Luc, pcDNA-GAL4, pGL4-Renilla-Luc and pGEM plasmids were generously provided by Dr. David Mangelsdorf. The GAL4-hCAR plasmid encodes a constitutively expressed chimeric yeast GAL4 DBD fused to an hCAR LBD. The UAS-Luc plasmid encodes a Firefly luciferase reporter under the control of a GAL4 response element. The pcDNA plasmid encodes a constitutively expressed GAL4 DBD and was used as a control vector to determine non-specific luminescence in all HEK293T cellular reporter assays. The pGL4-Renilla-Luc plasmid encodes a constitutively expressed Renilla luciferase reporter and was used as a transfection control in the HEK293T cellular reporter assays.
HEK293T cells (ATCC, CRL-3216) were seeded at a density of 40,000 cells per well in white flat-bottom 96-well microplates (Greiner CellStar, 655073) in Dulbecco’s Modified Eagle Medium (DMEM) (2.5 g/l glucose) supplemented with 10% stripped fetal bovine serum with 100 units/ml of penicillin and incubated for 24 h at 37 °C. Transfection was carried out using 0.3 µL/well of Lipofectamine 2000 (Thermo Fisher Scientific, 11668019). Cells were transfected with 10 ng/well of either pcDNA or GAL4-hCAR, 50 ng/well of UAS-Luc, 5 ng/well of pGL4-Renilla-Luc, and 85 ng/well of pGEM for a total of 150 ng/well of DNA. […] Cells were incubated for 16-hours to allow build-up of luciferase and then processed using the Dual-Glo Luciferase Assay System (Promega, E2940) as per the manufacturer’s instructions. Incubations were performed in four technical replicates.

[1] = system: mCAR target genes (cyp2b10, cyp3a11, sult2a1) in mouse liver; experiment: qPCR of mCAR target genes in mouse liver after intraperitoneal treatment; format: in vivo; conditions: for cyp2b10 expression in liver, wild-type mice: 25 mg/kg i.p. once daily for three days; for sult2a1 expression in liver: WT or Nr1i3-/- mice; for cyp3a11 expression in liver: mouse liver, with or without And pre-treatment
Description: (§1) 12–15 week-old C57BL/6 J mice were obtained from Jackson Laboratories and were housed on a standard 12 h light/dark cycle. Nr1i3^−/− mice with C57BL/6 J background were obtained from David Moore’s lab (PMID: 11057673) at Baylor College of Medicine, and used at 13–26 weeks of age. Wild-type male, female and Nr1i3^−/− male mice were used in this study, due to known sex-specific CAR activities. Mice were housed in groups of 2–5 mice per cage on a standard 12 h light/dark cycle and fed with rodent chow diet (Inotiv, Teklad rodent diet 2918). Temperature was maintained at 21 °C with a range of 21–24 °C and humidity at 16–51%. National Institute of Health guidelines for the care and use of laboratory animals were followed with all experiments performed as directed by the Institutional Animal Care and Use Committee at the University of Illinois, Urbana-Champaign (UIUC, IACUC protocol: 22183). Mice were acclimatized to the UIUC mouse facility for 2 weeks prior to experiments. DIM and DIE were dissolved in 5% DMSO in corn oil and injected intraperitoneally at 25 mg/kg once daily for three days. After 4 h of the third injection, mice were sacrificed to collect serum, livers and intestines. TCPOBOP was dissolved in corn oil and injected intraperitoneally at 3 mg/kg once and the livers collected after 3 days for further studies. When used to block CAR activity, 100 mg/kg androstenol was injected intraperitoneally 15 min prior to the first DIM or DIE treatment. RNA from mice livers was isolated using TRIzol (Invitrogen) reagent using the manufacturer’s instructions. 3–5 µg of RNA was used to synthesize cDNA with random primers (NEBioLabs) and Maxima Reverse Transcriptase kits (Thermo Fisher Scientific). cDNA was further diluted, and 50 ng was used for SYBR green (Thermo Fisher Scientific) based qRT-PCR. Relative gene expression was calculated by the delta Ct method and normalized to 36b4 levels as loading controls. qPCR primers for gene expression analysis are listed in Supplementary Table 3.

[2] = Liver-to-body weight ratio after treatment; format: in vivo
Description: as §1

Liver histology (H&E) = format: in vivo
Description: as §1, with “3. […]” for “3.”

| Structure (SMILES) | Tm (hCAR LBD-SRC1 protein) [°C] | EC50 (GAL4-hCAR LBD) [nM] | cyp2b10 expression in liver, wild-type mice [1] | sult2a1 expression in liver [1] | cyp3a11 expression in liver [1] | liver weight / liver-to-body weight ratio ([2]; post-treatment, compared to control) | liver histology (H&E) findings (Liver histology (H&E); after treatment) | liver weight / liver-to-body weight ratio ([2]; mouse, in vivo) | liver histology (H&E) findings (Liver histology (H&E); mouse, in vivo) |
| --- | --- | --- | --- | --- | --- | --- | --- | --- | --- |
| CC(c1c[nH]c2ccccc12)c1c[nH]c2ccccc12 [DIE, 3,3’-diindolylethane] | 59.6 | 720 | robustly induced | did not show significant responses | did not affect | no significant changes | no increase in hepatocyte size, cytoplasmic swelling, obvious damage or inflammation | – | – |
| c1ccc2c(Cc3c[nH]c4ccccc34)c[nH]c2c1 [DIM, diindolylmethane] | 57.1 | 1740 | robustly induced | did not show significant responses | did not affect | – | – | no significant changes | no increase in hepatocyte size, cytoplasmic swelling, obvious damage or inflammation |
